Assay results from patent US11096923B2, “Pharmaceutical composition containing polymyxin B/trimethoprim based therapeutics” (University of Rochester, priority 2016, dated 2021).

Legend:
[1] = test system: P. aeruginosa; assay: Fractional inhibitory concentration, checkerboard MIC; assay type: cell-based, Pseudomonas aeruginosa; conditions: for MIC in combination: PT combined with rifampicin; for MIC: Pseudomonas aeruginosa
[2] = test system: S. aureus; assay: as above; assay type: cell-based, Staphylococcus aureus; conditions: for MIC in combination: PT combined with rifampicin; for MIC: Staphylococcus aureus
[3] = test system: S. aureus UAMS-1; assay: Selleck library screen in presence of sub-inhibitory polymyxin B/trimethoprim; assay type: cell-based, Staphylococcus aureus; design: key: Growth (+); no growth (−)
Protocol: To identify agents that potentiate the antimicrobial activity of polymyxin B/trimethoprim we first determined the highest concentration of the polymyxin B/trimethoprim combination that allowed growth of P. aeruginosa strain PAO1 and S. aureus strain UAMS-1.
For Selleck library screening, individual wells of 96-well microtiter plates containing 88 μl of fresh media were inoculated with approximately 10^5 CFUs of P. aeruginosa strain PAO1 or S. aureus UAMS-1. Next, 2 μl of polymyxin B/trimethoprim was added to a final concentration of 0.2 μg ml^−1 or 1.25 μg ml^−1 for PA01 and UAMS-1, respectively. Library members were then added at either 5 μM or 50 μM final concentration. Plates were incubated at 37° C. for 16 hours and hits were identified as wells with no visible growth.
To do so, 10^5 CFUs of S. aureus strain UAMS-1 were inoculated in individual wells of a microtiter plate supplemented with 1.2 μg ml^−1 of polymyxin B/trimethoprim, (0.25×MIC). Library members were added at low (5 μM) or high (50 μM) concentrations and then scored for agents that inhibited growth following overnight incubation. Such agents were expected to represent compounds that display antimicrobial activity on their own and/or that potentiate the antimicrobial activity of polymyxin B/trimethoprim.

[4] = test system: P. aeruginosa strain PA01 biofilms; assay: Biofilm susceptibility; assay type: cell-based, Pseudomonas aeruginosa; conditions: established PA01 biofilm, 24 hrs treatment, 32×MIC
Source text: (§1) Bacterial strains used in these studies include the conventional laboratory strains Pseudomonas aeruginosa PA01 and Staphylococcus aureus UAMS-1, both of which are antibiotic susceptible and capable of forming robust biofilms. See […], Thomas J R, Nelson […]. Role of the accessory gene regulator (agr) in pathogenesis of staphylococcal osteomyelitis. Infection and immunity 1995; 63:3373-3380. Seven clinical keratitis isolates of Pseudomonas aeruginosa, were collected from the Flaum Eye Institute, Rochester N.Y. and 25 clinical isolates of Staphylococcus aureus from geographically distinct regions of the country where purchased from International Health Management Associates (IHMA; Schaumburg, Ill.). […] After 24 hrs the remaining media and non-adherent cells were removed, biofilms were suspended in 0.8% NaCl and plated to quantify surviving bacteria. […] Biofilms were treated in increasing increments ranging from 0 to 64×MIC.

[5] = test system: S. aureus UAMS-1 biofilms; assay: Biofilm susceptibility; assay type: cell-based, Staphylococcus aureus; conditions: established S. aureus biofilm, 24 hrs treatment, 32×MIC
Source text: as §1, with “Ill.). For experiments requiring planktonic cultures, the indicated organism was grown overnight in Luria-Bertani broth (LB; […] Biofilms were established by inoculating individual wells of flat-bottom polystyrene plates (Falcon, Corning Life Sciences; Durham, N.C.) with overnight cultures of the indicated organism into 200 ul of fresh LB to a final concentration of 1×10^7 CFU ml^-1. Plates were placed in a 37° C.-humidified incubator for 72 hours to allow static biofilm formation. Non-adherent cells were aspirated and biofilms were washed twice with phosphate-buffered saline prior to each experiment.” for “Ill.).”

## CO[C@H]1/C=C/O[C@@]2(C)Oc3c(C)c(O)c4c(O)c(c(/C=N/N5CCN(C)CC5)c(O)c4c3C2=O)NC(=O)/C(C)=C\C=C\[C@H](C)[C@H](O)[C@@H](C)[C@@H](O)[C@@H](C)[C@H](OC(C)=O)[C@@H]1C [Rifampicin, rifampicin]
[1]; P. aeruginosa PAO1
  MIC in combination: 1.9 µg/mL
[1]; P. aeruginosa RW01
  MIC in combination: 1.9 µg/mL
  MIC: 15.6 µg/mL
[1]; P. aeruginosa RW02
  MIC in combination: 1.9 µg/mL
  MIC: 15.6 µg/mL
[1]; P. aeruginosa RW03
  MIC in combination: 3.9 µg/mL
  MIC: 15.6 µg/mL
[1]; P. aeruginosa RW04
  MIC in combination: 1.9 µg/mL
  MIC: 15.6 µg/mL
[1]; P. aeruginosa RW05
  MIC in combination: 1.9 µg/mL
  MIC: 31.2 µg/mL
[1]; P. aeruginosa RW06
  MIC in combination: 1.9 µg/mL
  MIC: 15.6 µg/mL
[1]; P. aeruginosa RW07
  MIC in combination: 1.9 µg/mL
  MIC: 15.6 µg/mL
[1]; PAO1, P. aeruginosa PAO1
  MIC: 15.6 µg/mL
[2]; S. aureus 1071788
  MIC in combination: 0.0015 µg/mL
  MIC: 0.01 µg/mL
[2]; S. aureus 1094094
  MIC in combination: 0.0015 µg/mL
  MIC: 0.01 µg/mL
[2]; S. aureus 1094140
  MIC in combination: 0.0015 µg/mL
  MIC: 0.01 µg/mL
[2]; S. aureus 1094147
  MIC in combination: 0.0015 µg/mL
  MIC: 0.01 µg/mL
[2]; S. aureus 1094166
  MIC in combination: 0.0015 µg/mL
  MIC: 0.01 µg/mL
[2]; S. aureus 1094178
  MIC in combination: 0.0076 µg/mL
  MIC: 0.1 µg/mL
[2]; S. aureus 1097612
  MIC in combination: 0.0035 µg/mL
  MIC: 0.05 µg/mL
[2]; S. aureus 1097630
  MIC in combination: 0.0015 µg/mL
  MIC: 0.01 µg/mL
[2]; S. aureus 1101442
  MIC in combination: 0.0035 µg/mL
  MIC: 0.05 µg/mL
[2]; S. aureus 1103430
  MIC in combination: 0.0015 µg/mL
  MIC: 0.01 µg/mL
[2]; S. aureus 1110936
  MIC in combination: 0.0035 µg/mL
  MIC: 0.05 µg/mL
[2]; S. aureus 1111063
  MIC in combination: 0.0076 µg/mL
  MIC: 0.1 µg/mL
[2]; S. aureus 1122181
  MIC in combination: 0.0015 µg/mL
  MIC: 0.01 µg/mL
[2]; S. aureus 1122187
  MIC in combination: 0.0035 µg/mL
  MIC: 0.05 µg/mL
[2]; S. aureus 1122190
  MIC in combination: 0.0035 µg/mL
  MIC: 0.05 µg/mL
[2]; S. aureus 1122197
  MIC in combination: 0.0015 µg/mL
  MIC: 0.01 µg/mL
[2]; S. aureus 1125120
  MIC in combination: 0.0076 µg/mL
  MIC: 0.05 µg/mL
[2]; S. aureus 1132822
  MIC in combination: 0.0015 µg/mL
  MIC: 0.01 µg/mL
[2]; S. aureus 1142776
  MIC in combination: 0.0015 µg/mL
  MIC: 0.01 µg/mL
[2]; S. aureus 1144105
  MIC in combination: 0.0035 µg/mL
  MIC: 0.05 µg/mL
[2]; S. aureus UAMS-1
  MIC in combination: 0.0015 µg/mL
  MIC: 0.01 µg/mL
[3]; drug 5 μM in presence of 1.2 μg ml^−1 polymyxin B/trimethoprim
  S. aureus growth, 5 μM: −
[3]; drug 50 μM in presence of 1.2 μg ml^−1 polymyxin B/trimethoprim
  S. aureus growth, 50 μM: −
[4]
  reduction in biofilm-associated CFU: 5 log
[5]
  reduction in biofilm-associated CFU: 4 log
